Measured values taken from article PMC10740425, “How Deep Learning in Antiviral Molecular Profiling Identified Anti-SARS-CoV-2 Inhibitors” (Biomedicines, 2023).

Tested on: SARS-CoV-2 beta variant
Design: species or system BALB/C mice
Details: mouse, in vivo, 5 mg/kg

Compound	lung viral titers compared to vehicle control
Cn1cnc([N+](=O)[O-])c1Sc1ncnc2nc[nH]c12 [azathioprine]	did not demonstrate a significant reduction in viral titers
O=P(O)(O)OC[C@H]1O[C@@H](n2cnc3c(S)ncnc32)[C@H](O)[C@@H]1O [thioinosinic acid]	approximately tenfold lower
